System: MV-4-11 cells
Experiment: Gene expression microarray analysis (Affymetrix PrimeView) and GSEA
Format: cell-based, human
Parameters: RFU PODN (11730768_x_at) / Fold change /veh PODN (11730768_x_at) / RFU LINC00158 (11744669_a_at) / Fold change /veh LINC00158 (11744669_a_at) / RFU DUSP10 (11751237_a_at) / Fold change /veh DUSP10 (11751237_a_at) / RFU ID3 (11757404_x_at) / Fold change /veh ID3 (11757404_x_at) / RFU PLEKHG5 (11737974_s_at) / Fold change /veh PLEKHG5 (11737974_s_at) / RFU LRRC4B (11730491_at) / Fold change /veh LRRC4B (11730491_at) / RFU GIMAP4 (11747438_a_at) / Fold change /veh GIMAP4 (11747438_a_at) / RFU KRT8 (11758183_x_at) / Fold change /veh KRT8 (11758183_x_at) / RFU CNN1 (11734310_a_at) / Fold change /veh CNN1 (11734310_a_at) / RFU VPS37D (11726825_at) / Fold change /veh VPS37D (11726825_at) / RFU C10orf10 (11716522_x_at) / Fold change /veh C10orf10 (11716522_x_at) / RFU KIR2DL2 /// KIR2DL4 /// KIR2DL5A /// KIR2DL5B /// KIR2DS1 /// KIR2DS2 /// KIR2DS3 /// KIR2DS4 /// KIR3DL3 /// KIR3DL3 /// KIR3DS1 (11738374_at) / Fold change /veh KIR2DL2 /// KIR2DL4 /// KIR2DL5A /// KIR2DL5B /// KIR2DS1 /// KIR2DS2 /// KIR2DS3 /// KIR2DS4 /// KIR3DL3 /// KIR3DL3 /// KIR3DS1 (11738374_at) / RFU C1QL1 (11718748_at) / Fold change /veh C1QL1 (11718748_at) / RFU TMPRSS4 (11747572_a_at) / Fold change /veh TMPRSS4 (11747572_a_at) / RFU HAMP (11756126_x_at) / Fold change /veh HAMP (11756126_x_at) / RFU RNFT2 (11725882_a_at) / Fold change /veh RNFT2 (11725882_a_at) / RFU NR4A2 (11747474_a_at) / Fold change /veh NR4A2 (11747474_a_at) / RFU ABCC12 (11746883_a_at) / Fold change /veh ABCC12 (11746883_a_at) / RFU TMEM136 (11760407_x_at) / Fold change /veh TMEM136 (11760407_x_at) / RFU CLDN22 /// WWC2 (11732394_at) / Fold change /veh CLDN22 /// WWC2 (11732394_at) / RFU HLA-DPB1 (11760878_x_at) / Fold change /veh HLA-DPB1 (11760878_x_at) / RFU SPINT1 (11716480_a_at) / Fold change /veh SPINT1 (11716480_a_at) / RFU GAP43 (11754022_s_at) / Fold change /veh GAP43 (11754022_s_at) / RFU A4GNT (11735810_at) / Fold change /veh A4GNT (11735810_at) / RFU PRB3 (11715151_x_at) / Fold change /veh PRB3 (11715151_x_at) / RFU TUBB4B (11761932_at) / Fold change /veh TUBB4B (11761932_at) / RFU CAPN14 (11732068_a_at) / Fold change /veh CAPN14 (11732068_a_at) / RFU TMCC2 (11721928_a_at) / Fold change /veh TMCC2 (11721928_a_at) / RFU IRGQ (11745062_a_at) / Fold change /veh IRGQ (11745062_a_at) / RFU FAM174B (11720279_a_at) / Fold change /veh FAM174B (11720279_a_at) / RFU TMPRSS4 (11748680_a_at) / Fold change /veh TMPRSS4 (11748680_a_at) / RFU FAM212B (11763350_a_at) / Fold change /veh FAM212B (11763350_a_at) / RFU PLEKHG5 (11743358_a_at) / Fold change /veh PLEKHG5 (11743358_a_at) / RFU ZSCAN30 (11745921_a_at) / Fold change /veh ZSCAN30 (11745921_a_at) / RFU CMKLR1 (11741424_a_at) / Fold change /veh CMKLR1 (11741424_a_at) / RFU LOC101060620 /// MAPK8IP1 (11723275_at) / Fold change /veh LOC101060620 /// MAPK8IP1 (11723275_at) / RFU SPTSSB (11747773_x_at) / Fold change /veh SPTSSB (11747773_x_at) / RFU PRSS12 (11739890_at) / Fold change /veh PRSS12 (11739890_at) / RFU BIN1 (11741810_x_at) / Fold change /veh BIN1 (11741810_x_at) / RFU WNT11 (11732464_a_at) / Fold change /veh WNT11 (11732464_a_at) / RFU C10orf10 (11716521_a_at) / Fold change /veh C10orf10 (11716521_a_at) / RFU C5orf56 (11738089_at) / Fold change /veh C5orf56 (11738089_at) / RFU CYB561 (11721691_x_at) / Fold change /veh CYB561 (11721691_x_at) / RFU ANKRD19P (11752326_a_at) / Fold change /veh ANKRD19P (11752326_a_at) / RFU OR2T12 /// OR2T33 /// OR2T8 (11738714_s_at) / Fold change /veh OR2T12 /// OR2T33 /// OR2T8 (11738714_s_at) / RFU VCAN (11748164_a_at) / Fold change /veh VCAN (11748164_a_at) / RFU JSRP1 (11732532_at) / Fold change /veh JSRP1 (11732532_at) / RFU KRTAP10-11 (11738290_x_at) / Fold change /veh KRTAP10-11 (11738290_x_at) / RFU MYO3A (11730013_a_at) / Fold change /veh MYO3A (11730013_a_at) / RFU EBF3 (11725865_a_at) / Fold change /veh EBF3 (11725865_a_at) / RFU CAMK2N1 (11719241_x_at) / Fold change /veh CAMK2N1 (11719241_x_at) / RFU C5orf56 (11738088_a_at) / Fold change /veh C5orf56 (11738088_a_at) / RFU OLFML3 (11715873_a_at) / Fold change /veh OLFML3 (11715873_a_at) / RFU LOC100653217 /// NTM (11731650_a_at) / Fold change /veh LOC100653217 /// NTM (11731650_a_at) / RFU MAPK11 (11762145_a_at) / Fold change /veh MAPK11 (11762145_a_at) / RFU FIZ1 (11724087_x_at) / Fold change /veh FIZ1 (11724087_x_at) / RFU OASL (11726364_x_at) / Fold change /veh OASL (11726364_x_at) / RFU SOX15 (11748057_x_at) / Fold change /veh SOX15 (11748057_x_at) / RFU CD79A (11719716_a_at) / Fold change /veh CD79A (11719716_a_at) / RFU HIST1H1D (11736915_at) / Fold change /veh HIST1H1D (11736915_at) / RFU CASKIN2 (11723855_a_at) / Fold change /veh CASKIN2 (11723855_a_at) / RFU LOC730098 (11760151_x_at) / Fold change /veh LOC730098 (11760151_x_at) / RFU OR4N2 (11742367_at) / Fold change /veh OR4N2 (11742367_at) / RFU PRRT2 (11749266_a_at) / Fold change /veh PRRT2 (11749266_a_at) / RFU SNX32 (11753110_a_at) / Fold change /veh SNX32 (11753110_a_at) / RFU CDHR5 (11726645_a_at) / Fold change /veh CDHR5 (11726645_a_at) / RFU RCAN1 (11760418_a_at) / Fold change /veh RCAN1 (11760418_a_at) / RFU FAM167A (11723789_a_at) / Fold change /veh FAM167A (11723789_a_at) / RFU FAM26E (11764081_at) / Fold change /veh FAM26E (11764081_at) / RFU ISYNA1 (11749810_s_at) / Fold change /veh ISYNA1 (11749810_s_at) / RFU ACY1 (11761880_at) / Fold change /veh ACY1 (11761880_at) / RFU 11764098_at / Fold change /veh 11764098_at / RFU SAMD14 (11745864_x_at) / Fold change /veh SAMD14 (11745864_x_at) / RFU NPB (11741838_a_at) / Fold change /veh NPB (11741838_a_at) / RFU TMPRSS6 (11731388_a_at) / Fold change /veh TMPRSS6 (11731388_a_at) / RFU KRTAP10-2 (11738614_at) / Fold change /veh KRTAP10-2 (11738614_at) / RFU ARHGAP8 /// PRR5-ARHGAP8 (11727945_x_at) / Fold change /veh ARHGAP8 /// PRR5-ARHGAP8 (11727945_x_at) / RFU KRTAP5-7 /// NADSYN1 (11734609_at) / Fold change /veh KRTAP5-7 /// NADSYN1 (11734609_at) / RFU RASL12 (11751679_a_at) / Fold change /veh RASL12 (11751679_a_at) / RFU CDKN2B (11736163_a_at) / Fold change /veh CDKN2B (11736163_a_at) / RFU PRF1 (11729649_at) / Fold change /veh PRF1 (11729649_at) / RFU, ZNF638 /// ZNF638-IT1 / Fold change vs veh, ZNF638 /// ZNF638-IT1 / RFU, PANK3 / Fold change vs veh, PANK3 / RFU, SH3YL1 / Fold change vs veh, SH3YL1 / RFU, ZEB2 / Fold change vs veh, ZEB2 / RFU, NRIP1 / Fold change vs veh, NRIP1 / RFU, PTTG1IP / Fold change vs veh, PTTG1IP / RFU, CAPN2 / Fold change vs veh, CAPN2 / RFU, MED14 / Fold change vs veh, MED14 / RFU, SNORA58 / Fold change vs veh, SNORA58 / RFU, C1orf63 / Fold change vs veh, C1orf63 / RFU, LRRFIP1 / Fold change vs veh, LRRFIP1 / RFU, NDUFAF7 / Fold change vs veh, NDUFAF7 / RFU, SLC12A2 / Fold change vs veh, SLC12A2 / RFU, IBTK / Fold change vs veh, IBTK / RFU, ESF1 / Fold change vs veh, ESF1 / Fold change vs veh, TMEM50B / RFU, TAOK1 / Fold change vs veh, TAOK1 / RFU, ACBD3 / Fold change vs veh, ACBD3 / RFU, TMA16 / Fold change vs veh, TMA16 / RFU, RWDD3 / Fold change vs veh, RWDD3 / RFU, BCAT1 / Fold change vs veh, BCAT1 / RFU, EDEM3 / Fold change vs veh, EDEM3 / RFU, TMEM33 / Fold change vs veh, TMEM33 / RFU, WDR75 / Fold change vs veh, WDR75 / RFU, AHCTF1 / Fold change vs veh, AHCTF1 / RFU, TFRC / Fold change vs veh, TFRC / RFU, ZDHHC17 / Fold change vs veh, ZDHHC17 / RFU, NOM1 / Fold change vs veh, NOM1 / RFU, ARL8B / Fold change vs veh, ARL8B / RFU, ZBTB11 / Fold change vs veh, ZBTB11 / RFU, TAMM41 / Fold change vs veh, TAMM41 / RFU, KIAA1704 /// LOC100996395 / Fold change vs veh, KIAA1704 /// LOC100996395 / RFU, ING1 / Fold change vs veh, ING1 / RFU, TRMT61B / Fold change vs veh, TRMT61B / RFU, FUBP3 / Fold change vs veh, FUBP3 / RFU, TP53 / Fold change vs veh, TP53 / RFU, TNKS2 / Fold change vs veh, TNKS2 / RFU, ZFP14 / Fold change vs veh, ZFP14 / RFU, ACTR2 / Fold change vs veh, ACTR2 / RFU, PPP3R1 / Fold change vs veh, PPP3R1 / RFU, PIK3R1 / Fold change vs veh, PIK3R1 / RFU, HNRNPA1 / Fold change vs veh, HNRNPA1 / RFU, RNF170 / Fold change vs veh, RNF170 / RFU, ZNF28 / Fold change vs veh, ZNF28 / RFU, RNGTT / Fold change vs veh, RNGTT / RFU, OGT / Fold change vs veh, OGT / RFU, BRD1 / Fold change vs veh, BRD1 / RFU, MARS / Fold change vs veh, MARS / RFU, ZNF655 / Fold change vs veh, ZNF655 / RFU, FAHD1 / Fold change vs veh, FAHD1 / RFU, BDP1 / Fold change vs veh, BDP1 / RFU, LRRCC1 / Fold change vs veh, LRRCC1 / RFU, ARID1A / Fold change vs veh, ARID1A / RFU, ZNF146 / Fold change vs veh, ZNF146 / RFU, ZNF330 / Fold change vs veh, ZNF330 / RFU, GPN3 / Fold change vs veh, GPN3 / RFU, C9orf123 / Fold change vs veh, C9orf123 / RFU, N4BP2L2 / Fold change vs veh, N4BP2L2 / RFU, ARFIP1 / Fold change vs veh, ARFIP1 / RFU, FAM179B / Fold change vs veh, FAM179B / RFU, BCL10 / Fold change vs veh, BCL10 / RFU, UHRF1BP1L / Fold change vs veh, UHRF1BP1L / RFU, BET1 / Fold change vs veh, BET1 / RFU, CNOT2 / Fold change vs veh, CNOT2 / RFU, ZNF268 / Fold change vs veh, ZNF268 / Fold change vs veh, ZNF507 / RFU, DGCR2 / Fold change vs veh, DGCR2 / RFU, WDSUB1 / Fold change vs veh, WDSUB1 / Fold change vs veh, HSP90B1 /// MIR3652 / RFU, ADSS / Fold change vs veh, ADSS / RFU, GK / Fold change vs veh, GK / RFU, ZNF148 / Fold change vs veh, ZNF148 / RFU, TAF9 / Fold change vs veh, TAF9 / RFU, SLC1A5 / Fold change vs veh, SLC1A5 / RFU, SLMO2 / Fold change vs veh, SLMO2 / RFU, ABCC4 / Fold change vs veh, ABCC4 / RFU, LOC101060439 /// RAP1B / Fold change vs veh, LOC101060439 /// RAP1B / RFU, RFX7 / Fold change vs veh, RFX7 / RFU, GTPBP10 / Fold change vs veh, GTPBP10 / RFU, CNEP1R1 / Fold change vs veh, CNEP1R1 / RFU, BIVM-ERCC5 /// ERCC5 / Fold change vs veh, BIVM-ERCC5 /// ERCC5 / RFU, ILF3 / Fold change vs veh, ILF3 / RFU 11762660_at / Fold change /veh 11762660_at / RFU VCAN (11757783_s_at) / Fold change /veh VCAN (11757783_s_at) / RFU DDX43 (11728927_at) / Fold change /veh DDX43 (11728927_at) / RFU KRT8 (11758188_x_at) / Fold change /veh KRT8 (11758188_x_at) / RFU NKD1 (11759106_at) / Fold change /veh NKD1 (11759106_at) / RFU SRD5A1 (11742802_a_at) / Fold change /veh SRD5A1 (11742802_a_at) / RFU TPSAB1 /// TPSB2 (11721975_s_at) / Fold change /veh TPSAB1 /// TPSB2 (11721975_s_at) / RFU GSTM3 (11746129_a_at) / Fold change /veh GSTM3 (11746129_a_at) / RFU IL23R (11737362_x_at) / Fold change /veh IL23R (11737362_x_at) / RFU TMEM51 (11727254_a_at) / Fold change /veh TMEM51 (11727254_a_at) / RFU PIWIL2 (11732686_x_at) / Fold change /veh PIWIL2 (11732686_x_at) / RFU ORM1 (11744905_x_at) / Fold change /veh ORM1 (11744905_x_at) / RFU CCDC152 (11743942_at) / Fold change /veh CCDC152 (11743942_at) / RFU ECM1 (11717891_a_at) / Fold change /veh ECM1 (11717891_a_at) / RFU IL23R (11748794_a_at) / Fold change /veh IL23R (11748794_a_at) / RFU TNFAIP8L3 (11732012_x_at) / Fold change /veh TNFAIP8L3 (11732012_x_at) / RFU MBOAT4 (11741988_at) / Fold change /veh MBOAT4 (11741988_at) / RFU 11764193_at / Fold change /veh 11764193_at / RFU TMEM53 (11763286_at) / Fold change /veh TMEM53 (11763286_at) / RFU MAGEB2 (11727129_at) / Fold change /veh MAGEB2 (11727129_at) / RFU TMEM200A (11744735_a_at) / Fold change /veh TMEM200A (11744735_a_at) / RFU CCDC152 (11751479_a_at) / Fold change /veh CCDC152 (11751479_a_at) / RFU FAM211A (11726209_a_at) / Fold change /veh FAM211A (11726209_a_at) / RFU RGS16 (11746705_a_at) / Fold change /veh RGS16 (11746705_a_at) / RFU VCAN (11755009_s_at) / Fold change /veh VCAN (11755009_s_at) / RFU RHOB (11743442_s_at) / Fold change /veh RHOB (11743442_s_at) / RFU RGS16 (11720943_a_at) / Fold change /veh RGS16 (11720943_a_at) / RFU RGS16 (11720944_at) / Fold change /veh RGS16 (11720944_at) / RFU, VPS4B / Fold change vs veh, VPS4B / RFU, CREB1 / Fold change vs veh, CREB1 / RFU, DNAJC13 / Fold change vs veh, DNAJC13 / RFU, GNAQ / Fold change vs veh, GNAQ / RFU, CDK5R1 / Fold change vs veh, CDK5R1 / RFU, ZRANB3 / Fold change vs veh, ZRANB3 / RFU, CUL4A / Fold change vs veh, CUL4A / RFU, CCNY / Fold change vs veh, CCNY / RFU, UFL1 / Fold change vs veh, UFL1 / RFU, COG3 / Fold change vs veh, COG3 / RFU, DIAPH2 / Fold change vs veh, DIAPH2 / RFU, SKA2 / Fold change vs veh, SKA2 / RFU, AFF3 / Fold change vs veh, AFF3 / RFU, LMF1 / Fold change vs veh, LMF1 / RFU, IPO11 / Fold change vs veh, IPO11 / RFU, DFFB / Fold change vs veh, DFFB / RFU, FOXP1 / Fold change vs veh, FOXP1 / RFU, CARD8 / Fold change vs veh, CARD8 / RFU, STRN3 / Fold change vs veh, STRN3 / RFU, ADK / Fold change vs veh, ADK / RFU, RASSF2 / Fold change vs veh, RASSF2 / RFU, WIPF1 / Fold change vs veh, WIPF1 / RFU, LARP1B / Fold change vs veh, LARP1B / RFU, RASA1 / Fold change vs veh, RASA1 / RFU, RB1 / Fold change vs veh, RB1 / RFU, PPFIA1 / Fold change vs veh, PPFIA1 / RFU, MAT2A / Fold change vs veh, MAT2A / RFU, CCT5 / Fold change vs veh, CCT5 / RFU, WDR92 / Fold change vs veh, WDR92 / RFU, CUX1 / Fold change vs veh, CUX1 / RFU, TTC7A / Fold change vs veh, TTC7A / RFU, TMEM135 / Fold change vs veh, TMEM135 / RFU, DEPTOR / Fold change vs veh, DEPTOR / RFU, CPM / Fold change vs veh, CPM / RFU, DNAJB6 / Fold change vs veh, DNAJB6 / RFU, CACNA2D3 / Fold change vs veh, CACNA2D3 / RFU, DTX4 / Fold change vs veh, DTX4 / RFU, TFCP2 / Fold change vs veh, TFCP2 / RFU, GMCL1 /// GMCL1P1 / Fold change vs veh, GMCL1 /// GMCL1P1 / RFU, AEBP2 / Fold change vs veh, AEBP2 / RFU, SNHG1 /// SNORD22 /// SNORD25 /// SNORD26 /// SNORD27 /// SNORD28 /// SNORD29 /// SNORD31 / Fold change vs veh, SNHG1 /// SNORD22 /// SNORD25 /// SNORD26 /// SNORD27 /// SNORD28 /// SNORD29 /// SNORD31 / Fold change (Aza/veh), C12orf56 (ProbeSet 11735607_a_at) / Fold change (ACY-1035/veh), C12orf56 (ProbeSet 11735607_a_at) / Fold change (Aza/veh), FGFR1OP (ProbeSet 11751329_s_at) / Fold change (ACY-1035/veh), FGFR1OP (ProbeSet 11751329_s_at) / Fold change (Aza/veh), VPS36 (ProbeSet 11739960_a_at) / Fold change (ACY-1035/veh), VPS36 (ProbeSet 11739960_a_at) / RFU SYPL1 (11715823_x_at) / Fold change /veh SYPL1 (11715823_x_at) / RFU IGFBP7 (11715501_s_at) / Fold change /veh IGFBP7 (11715501_s_at) / RFU REEP3 (11722064_at) / Fold change /veh REEP3 (11722064_at) / RFU IGLL1 (11728026_x_at) / Fold change /veh IGLL1 (11728026_x_at): dose or concentration left out as unconfirmed
Settings: ProbeSet 11744854_x_at; LIST B

## Nc1ccc(-c2cccs2)cc1NC(=O)c1ccc2c(c1)cc(C1CC1)n2CCN1CCOCC1 [ACY-1035]
  RFU, ZNF28: 57.08 RFU
